This is an account of results in US9345764B2, “Moesin modulators and uses thereof” (SHANGHAI KEXIN BIOTECH CO., LTD., priority 2010, dated 2016).

The test system of assay [1] is human pulmonary microvascular endothelial cell line (HPMEC). Briefly: Cell proliferation assay. In kind it is cell-based. As to conditions: agent alone; compared with negative control (Group 6, PBS); FIG. 3. On the procedure:
Cell proliferation assay were performed using a human pulmonary microvascular endothelial cell line (HPMEC). Cells were plated in each well on a 6-well plate at 10^6 cells/cm^2, and cultured at […] in the presence of various testing and control reagents as described below. After culturing for a determined period of time, cells were collected and labeled for flow cytometry analysis. Proliferation rates at 2 hrs, 24 hrs and 36 hrs were determined by dividing the mean OD570 value from the tested groups with the mean OD570 value from the group having the same number of cells as the test groups at the beginning of the cell culturing.
Tested and control groups are as follows:
2) Antibody against full length moesin protein (anti-Moesin);
3) Antibody against the C-terminal tail domain only (anti-M3);
4) TNF-alpha+anti-Moesin;
6) PBS solution (negative control)

Another assay deals with HPMEC cells. Briefly: Annexin V apoptosis assay (FITC/PI, flow cytometry). In kind it is cell-based, human. Particulars: agent alone, without combination partner. Here is the method: Cell cultures in the presence of anti-moesin antibodies as described in Example 1 were subjected to apoptosis assay as well as surface antigen assay, to assess the antibody's effect on promoting endothelial cell apoptosis and on intercellular expression of moesin (indicating the active form of the protein).
Annexin V assay was used to study apoptosis. Collected cells were washed with PBS, centrifuged, and added sequentially with 70% ethanol, […] (200 mg/l) and PI (20 mg/l). Cells were then stained with Annexin-V FITC/PI kit for double staining of FITC and PI, because viable cells are both FITC and PI negative, while cells that are in early apoptosis are FITC positive but PI negative, and cells that are in late apoptosis or already dead are both FITC and PI positive. Stained cells are analyzed using a flow cytometer for amount of apoptotic cells in the presence of variant testing agents. The percentage of cells in early apoptosis and the percentage of cells in late apoptosis or dead cells after treatment with the test groups and the control group were determined and the results are shown in FIG. 4(a) and FIG. 4(b) respectively.

As to TNF-alpha, the cell proliferation rates result in assay [1] is reported as “reduced cell proliferation rates but not as much as in combination with anti-moesin or anti-M3”. Further, the cell apoptosis entry in the assay on HPMEC cells is reported as “could induce cell apoptosis but the effect is not as much as it in combination with anti-moesin or anti-M3”.
